Experimental data from US11001802B2, “Surface of a vessel with polystyrene, nitrogen, oxygen and a static sessile contact angle for attachment and cultivation of cells” (Nunc A/S, priority 2008, dated 2021).

Key:
HEK293 cells = assay: HEK293 attachment and growth, culture confluence by IncuCyte Plus (Examples 20, 21); assay type: cell-based, human
Description: HEK293 cells were maintained in EMEM (Lonza) containing 10% FBS (Lonza). Cells were passaged at 70-80% confluence using Trypsin/EDTA for dissociation, and seeded at c 2.0×10^4 cells/cm^2 in 75-cm^2 flasks with Nunclon Delta™ surface (Thermo Fisher Scientific, Roskilde, Denmark).
EMEM (500 μl) supplemented with 10% FBS containing 1.0, 5.0, 10, 15 or 20 μM Y-27632 (Sigma Chemical Co.), or 0.4, 1.2, 1.6, 2.4 or 2.8 μM H-1152 (Calbiochem, EMD Chemicals Inc., Darmstadt, Germany) was dispensed in Multidish 24-well plates with either Surface 4 or a non-treated (but gamma irradiated; 25 kGy) polystyrene surface. Another 500 μl of EMEM supplemented with 10% FBS and containing HEK293 cells were added to the wells (2.0×10^4 cells/cm^2). The cultures were placed in an IncuCyte™ Plus (Essen Instruments, Michigan, USA) and incubated at 37° C. in a humidified atmosphere of 5% CO2 in air. The IncuCyte™ Plus is an automated imaging platform, configured to fit inside a CO2 incubator, and designed to provide kinetic, non-invasive live cell imaging by acquiring phase contrast images of the cells at user-defined times and locations within the cultures. The primary metric of the instrument is culture confluence, that is, the fraction of the surface that is covered by cells. The HEK293 cells were incubated for 72 hours without manipulations, and images were collected every two hours at 9 positions in triplicate cultures. Culture confluence was determined using the IncuCyte™ Plus software (v. 3.4.1.25966).
EMEM (1.0 ml) supplemented with 10% FBS containing 0.4, 0.8, 1.2, 1.6, 2.0, 2.4 or 2.8 μM H-1152 was dispensed in Multidish 12-well plates with Surface 4. Another 1.0 ml of EMEM supplemented with […] and containing HEK293 cells were added to the wells (4.0×10^4 cells/cm^2). The cultures were placed in an IncuCyte™ Plus, and incubated at 37° C. in a humidified atmosphere of 5% CO2 in air for 42 hours (images were collected every 6 hours). One ml of culture medium was then removed by pipetting, and 1.0 ml EMEM supplemented with 10% FBS containing 0.2, 0.4, 0.6, 0.8, 1.0, 1.2 and 1.4 μM H-1152 was added. The cultures were placed in the IncuCyte™ Plus again, and images were collected every hour over the following 25 hours. Images were collected at 9 positions in triplicate cultures, and culture confluence was determined using the IncuCyte™ Plus software. Images from the IncuCyte™ Plus collected at specific positions in HEK293 cell cultures grown in the absence or presence of H-1152 (0.6 μM) was retrieved and presented as phase-contrast micrographs for the comparison of HEK293 culture morphology at the following time points: start of incubation (0 hours), just before medium change (42 hours), 1 hour after the medium change (43 hours), and, finally, after 52 hours of incubation.

human ES cell line H9 = assay: Attachment and colony formation of H9 human ES cells on surface modified plates with Rho kinase inhibitors (crystal violet, image analysis); assay type: cell-based; settings: H9 on surface modified plates 2, 3, 4 and 13; crystal violet; Y-27632 at 10 μM
Description: Human ES cells of the line H9, at passage 40 were maintained in MEF conditioned media on Nunclon Delta™ plates treated with a 1:30 dilution of growth factor reduced Matrigel™, prior to study. Cells were dissociated from the surface for passage by 1 mg/ml collagenase dissociation or by manual scraping.
These cells were then seeded onto surface modified plates 2, 3, 4 and 13 (12-well format) in the presence of increasing amounts one of the following Rho Kinase inhibitors: Y-27632 (from Sigma, St. Louis, Mo. or EMD, San Diego, Calif.), Fasudil (Sigma), or Hydroxyfasudil (Sigma), and maintained for 3 days, each day replacing the media and compound. At the end of day three, media was removed and the plates were stained with Crystal Violet (0.5% in water) to visualize colonies.
It was attempted to determine the optimal dose of Y-27632 to promote cell binding, by treating cells with a range of plating concentrations of Y-27632 for the first day of culture. After the first day in culture cells were treated on subsequent days with a 10 μM concentration of Y-27632. It was observed that the maximal concentration to stimulate attachment and growth of ES cells was 10 μM (FIG. 12) and that this occurred on surface modified plates 2, 3, 4, 13 and CellBIND™ (Corning, Corning, N.Y.).
The effect of treating the cells continuously with a single dose of Y-27632 on attachment and growth was also tested. The cells were dosed with 0, 1, 4, or 10 μM Y-27632 for 4 days. Some binding was observed on surface modified plates without treatment (0 μM), however the optimal concentration to stimulate attachment and growth of ES cells was 10 μM Y-27632 (Table 4) on surface modified plates 2, 3, 4, 13.

SMILES | effect of change of 50% of the medium after 42 hours on culture confluence (HEK293 cells; Surface 4, 0.2 μM or 0.4 μM H-1152) | effect of change of 50% of the medium after 42 hours on culture confluence (HEK293 cells; Surface 4, 0.6 μM, 0.8 μM or 1.4 μM H-1152) | attachment and growth of HEK293 cells (HEK293 cells; Surface 4, increasing concentration) | growth and attachment of HEK293 cells (HEK293 cells; non-treated polystyrene surface, 10 μM Y-27632, 0.6-1.2 μM H-1152) | attachment of ES cell colonies by day three (human ES cell line H9)
Cc1cncc2cccc(S(=O)(=O)N3CCCNC[C@@H]3C)c12 [Surface H-1152, H-1152] | significant reduction in culture confluence | minimal | enhances attachment and growth | slightly enhanced | 
O=S(=O)(c1cccc2cnccc12)N1CCCNCC1 [Fasudil] |  |  |  |  | some colonies could be observed to attach and grow
O=c1[nH]ccc2c(S(=O)(=O)N3CCCNCC3)cccc12 [Hydroxyfasudil] |  |  |  |  | some colonies could be observed to attach and grow
